Test results reported in patent US20140011799A1 (Bristol-Myers Squibb Company, priority 2012, published 2014).

Tests used:
hepatic lipase (HL) = target: T1, hepatic lipase (HL) (Homo sapiens, UniProt P11150); test: Hepatic lipase (HL) enzymatic assay, fluorescent substrate A10070 in DMPG vesicles; format: biochemical; settings: HL partially purified from conditioned media of COS cells; compound preincubated 30 min at 37° C; read-out: HL IC50
T1 construct: made in house; host or cells: COS cells (conditioned medium, partially purified)
T1 sequence (P11150 23-499): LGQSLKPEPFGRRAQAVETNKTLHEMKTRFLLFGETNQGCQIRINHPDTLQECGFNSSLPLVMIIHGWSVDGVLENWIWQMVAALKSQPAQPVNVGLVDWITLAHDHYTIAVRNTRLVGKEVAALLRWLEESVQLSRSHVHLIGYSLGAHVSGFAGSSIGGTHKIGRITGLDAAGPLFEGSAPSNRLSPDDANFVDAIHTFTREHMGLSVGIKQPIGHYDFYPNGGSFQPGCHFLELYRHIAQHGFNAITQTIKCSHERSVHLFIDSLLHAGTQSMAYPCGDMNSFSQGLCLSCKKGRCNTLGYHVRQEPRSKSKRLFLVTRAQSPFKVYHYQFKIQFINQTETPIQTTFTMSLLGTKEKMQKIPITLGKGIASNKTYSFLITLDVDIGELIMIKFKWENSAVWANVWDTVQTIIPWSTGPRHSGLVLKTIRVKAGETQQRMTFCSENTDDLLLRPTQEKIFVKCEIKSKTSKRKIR
Method: Endothelial lipase (EL) and hepatic lipase (HL) activities were measured using a fluorescent substrate, A10070, (Invitrogen, CA) doped into an artificial vesicle containing DMPG (Avanti Polar Lipids) as the excipient. Vesicles were prepared by combining 571 μL of 29 mM DMPG in a 1:1 mixture of MeOH and CHCl3 with 2000 μL of 1 mM A10070 in a 1:1 mixture of MeOH and CHCl3. The mixture was dried under nitrogen in multiple vials then resuspended in 20 mL total volume of 50 mM HEPES pH 8.0 buffer containing 50 mM NaCl and 0.2 mM EDTA. The sample was allowed to sit at room temperature for 15 min and then was sonicated 3×4 mins on ice with a Branson Sonicator using duty cycle 1. This preparation provides vesicles with a mole fraction of 0.11 for the FRET substrate.
The enzymatic assay was measured using 384-well white Optiplates. Each well contained 20 μL of assay buffer (50 mM HEPES pH 8.0, 50 mM NaCl and 1 mM CaCl2) and 0.25 μL of a DMSO solution containing a compound of interest. EL or HL (10 μL) was added and allowed to incubate with the compound for 30 min at 37° C. The source of EL was conditioned media obtained from HT-1080 cells that were transformed using RAGE technology (Athersys) to overexpress endogenous EL, and HL was partially purified from conditioned media obtained from COS cells overexpressing HL. The reaction was started by the addition of 10 μL of a 1:10 dilution of vesicles. The final total reaction volume was […]. The reaction rates were measured on a Gemini plate reader with an excitation wavelength of 490 nm and an emission wavelength of 530 nm. Readings were taken over a period of 60 minutes, and the slope between 300 and 900 secs of the readout was used to calculate the rate of the reaction.

Endothelial lipase (EL) = target: T2, Endothelial lipase (EL) (Homo sapiens, UniProt Q9Y5X9); test: Endothelial lipase (EL) enzymatic assay, fluorescent substrate A10070 in DMPG vesicles; format: biochemical; settings: EL from conditioned media of HT-1080 cells; compound preincubated 30 min at 37° C; read-out: EL IC50
T2 construct: HT-1080 cells that were transformed using RAGE technology (Athersys) to overexpress endogenous EL; endogenous in cells; conditioned medium used
T2 sequence (Q9Y5X9 21-500): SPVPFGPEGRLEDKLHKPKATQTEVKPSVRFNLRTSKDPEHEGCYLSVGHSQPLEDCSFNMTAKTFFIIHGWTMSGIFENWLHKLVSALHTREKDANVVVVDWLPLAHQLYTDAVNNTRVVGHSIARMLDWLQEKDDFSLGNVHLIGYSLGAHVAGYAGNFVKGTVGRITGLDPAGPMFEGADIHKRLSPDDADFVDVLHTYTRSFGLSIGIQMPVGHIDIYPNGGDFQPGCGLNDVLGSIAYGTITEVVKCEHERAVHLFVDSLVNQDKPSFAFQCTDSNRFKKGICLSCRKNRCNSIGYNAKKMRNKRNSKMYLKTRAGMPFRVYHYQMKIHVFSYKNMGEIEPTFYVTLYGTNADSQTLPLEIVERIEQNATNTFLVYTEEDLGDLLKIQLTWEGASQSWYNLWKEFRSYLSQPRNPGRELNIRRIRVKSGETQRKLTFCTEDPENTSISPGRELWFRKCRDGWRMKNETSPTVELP
In short: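 Substrate A10070 sits in sonicated DMPG vesicles at 0.11 mole fraction. Lipase and compound preincubated 30 min, 37° C, in HEPES pH 8.0 buffer with CaCl2.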

IC50 (hepatic lipase (HL)) [nM] | IC50 (Endothelial lipase (EL)) [nM] | SMILES
< 10 | < 10 | CC(C)(C)OC(=O)NS(=O)(=O)NCc1nnc(C(c2nc3ccc(-c4ccc(Cl)cc4)cc3s2)S(=O)(=O)Cc2ccccc2)o1 (stereo not drawn) [Example 123, tert-butyl (((5-((benzylsulfonyl)(6-(4-chlorophenyl)-1,3-benzothiazol-2-yl)methyl)-1,3,4-oxadiazol-2-yl)methyl)sulfamoyl)carbamate]
37 | 48 | NS(=O)(=O)NCc1nnc(C(c2nc3ccc(Br)cc3s2)S(=O)(=O)Cc2ccccc2)o1 (stereo not drawn) [Example 124, N-((5-((benzylsulfonyl)(6-bromo-1,3-benzothiazol-2-yl)methyl)-1,3,4-oxadiazol-2-yl)methyl)sulfamide]
103 | < 10 | NS(=O)(=O)NCc1nnc(C(c2nc3ccc(-c4cncnc4)cc3s2)S(=O)(=O)Cc2ccccc2)o1 (stereo not drawn) [Example 125, N-((5-((benzylsulfonyl)(6-(5-pyrimidinyl)-1,3-benzothiazol-2-yl)methyl)-1,3,4-oxadiazol-2-yl)methyl) sulfamide]
< 10 | < 10 | NS(=O)(=O)NCc1nnc(C(c2nc3ccc(-c4ccc(F)cc4)cc3s2)S(=O)(=O)Cc2ccccc2)o1 (stereo not drawn) [Example 127, N-((5-((benzylsulfonyl)(6-(4-fluorophenyl)-1,3-benzothiazol-2-yl)methyl)-1,3,4-oxadiazol-2-yl)methyl) sulfamide]
< 10 | < 10 | NS(=O)(=O)NCc1nnc(C(c2nc3ccc(-c4ccc(C(F)(F)F)cc4)cc3s2)S(=O)(=O)Cc2ccccc2)o1 (stereo not drawn) [Example 128, N-((5-((benzylsulfonyl)(6-(4-(trifluoromethyl)phenyl)-1,3-benzothiazol-2-yl)methyl)-1,3,4-oxadiazol-2-yl)methyl) sulfamide]
22 | < 10 | CS(=O)(=O)C(c1nnc(CNS(N)(=O)=O)o1)c1nc2ccc(-c3ccc(C(=O)N4CCOCC4)cc3)cc2s1 (stereo not drawn) [Example 130, N-((5-((methylsulfonyl)(6-(4-(4-morpholinylcarbonyl)phenyl)-1,3-benzothiazol-2-yl)methyl)-1,3,4-oxadiazol-2-yl)methyl)sulfamide]
102 | < 10 | COc1cc(-c2ccc3nc(C(c4nnc(CNS(N)(=O)=O)o4)S(C)(=O)=O)sc3c2)ccn1 (stereo not drawn) [Example 131, N-((5-((6-(2-methoxy-4-pyridinyl)-1,3-benzothiazol-2-yl)(methylsulfonyl)methyl)-1,3,4-oxadiazol-2-yl)methyl)sulfamide]
22300 | 32 | CS(=O)(=O)C(c1nnc(CNS(N)(=O)=O)o1)c1nc2ccc(-c3cnn(CCN4CCOCC4)c3)cc2s1 (stereo not drawn) [Example 132, N-((5-((methylsulfonyl)(6-(1-(2-(4-morpholinyl)ethyl)-1H-pyrazol-4-yl)-1,3-benzothiazol-2-yl)methyl)-1,3,4-oxadiazol-2-yl)methyl) sulfamide]
467 | 16 | CS(=O)(=O)C(c1nnc(CNS(N)(=O)=O)o1)c1nc2ccc(-c3ccc(O)nc3)cc2s1 (stereo not drawn) [Example 133, N-((5-((methylsulfonyl)(6-(6-oxo-1,6-dihydro-3-pyridinyl)-1,3-benzothiazol-2-yl)methyl)-1,3,4-oxadiazol-2-yl)methyl) sulfamide]
307 | 20 | NS(=O)(=O)NCc1nnc(C(c2nc3ccc(-c4ccc(C(=O)N5CCOCC5)cc4)cc3s2)S(=O)(=O)CCNC(=O)OCc2ccccc2)o1 (stereo not drawn) [Example 134, benzyl {2-[({6-[4-(4-morpholinylcarbonyl)phenyl]-1,3-benzothiazol-2-yl}{5-[(sulfamoylamino)methyl]-1,3,4-oxadiazol-2-yl}methyl)sulfonyl]ethyl} carbamate]
91 | < 10 | CC1(CS(=O)(=O)C(c2nnc(CNS(N)(=O)=O)o2)c2nc3ccc(-c4ccc(C(=O)N5CCOCC5)cc4)cc3s2)COC1 (stereo not drawn) [Example 135, N-((5-((((3-methyl-3-oxetanyl)methyl)sulfonyl)(6-(4-(4-morpholinylcarbonyl)phenyl)-1,3-benzothiazol-2-yl)methyl)-1,3,4-oxadiazol-2-yl)methyl)sulfamide]
< 10 | < 10 | CC(C)Cn1cc(-c2ccc3nc(C(c4nnc(CNS(N)(=O)=O)o4)S(=O)(=O)Cc4ccccc4)sc3c2)cn1 (stereo not drawn) [Example 136, N-((5-((benzylsulfonyl)(6-(1-isobutyl-1H-pyrazol-4-yl)-1,3-benzothiazol-2-yl)methyl)-1,3,4-oxadiazol-2-yl)methyl)sulfamide]
< 10 | < 10 | NS(=O)(=O)NCc1nnc(C(c2nc3ccc(-c4cnn(-c5ccc(F)cc5)c4)cc3s2)S(=O)(=O)Cc2ccccc2)o1 (stereo not drawn) [Example 138, N-((5-((benzylsulfonyl)(6-(1-(4-fluorophenyl)-1H-pyrazol-4-yl)-1,3-benzothiazol-2-yl)methyl)-1,3,4-oxadiazol-2-yl)methyl)sulfamide]
< 10 | < 10 | NS(=O)(=O)NCc1nnc(C(c2nc3ccc(-c4ccc(F)c(Cl)c4)cc3s2)S(=O)(=O)Cc2ccccc2)o1 (stereo not drawn) [Example 139, N-((5-((benzylsulfonyl)(6-(3-chloro-4-fluorophenyl)-1,3-benzothiazol-2-yl)methyl)-1,3,4-oxadiazol-2-yl)methyl) sulfamide]
50 | < 10 | CN(C)C(=O)c1ccc(-c2ccc3nc(C(c4nnc(CNS(=O)(=O)NC(=O)OC(C)(C)C)o4)S(=O)(=O)Cc4ccccc4)sc3c2)cc1Cl (stereo not drawn) [Example 141, tert-butyl (((5-((benzylsulfonyl)(6-(3-chloro-4-(dimethylcarbamoyl)phenyl)-1,3-benzothiazol-2-yl)methyl)-1,3,4-oxadiazol-2-yl)methyl)sulfamoyl) carbamate]

SMILES | IC50 (hepatic lipase (HL)) [nM] | IC50 (Endothelial lipase (EL)) [nM]
NS(=O)(=O)NCc1nnc(C(c2nc3ccc(-c4cccc(Cl)c4)cc3s2)S(=O)(=O)Cc2ccccc2)o1 (stereo not drawn) [Example 129, N-((5-((benzylsulfonyl)(6-(3-chlorophenyl)-1,3-benzothiazol-2-yl)methyl)-1,3,4-oxadiazol-2-yl)methyl) sulfamide] | < 10 | < 10
COc1cc(-c2ccc3nc(C(c4nnc(CNS(N)(=O)=O)o4)S(=O)(=O)Cc4ccccc4)sc3c2)ccn1 (stereo not drawn) [Example 137, N-((5-((benzylsulfonyl)(6-(2-methoxy-4-pyridinyl)-1,3-benzothiazol-2-yl)methyl)-1,3,4-oxadiazol-2-yl)methyl) sulfamide] | < 10 | < 10
NS(=O)(=O)NCc1nnc(C(c2nc3ccc(-c4ccc(Cl)c(F)c4)cc3s2)S(=O)(=O)Cc2ccccc2)o1 (stereo not drawn) [Example 140, N-((5-((benzylsulfonyl)(6-(4-chloro-3-fluorophenyl)-1,3-benzothiazol-2-yl)methyl)-1,3,4-oxadiazol-2-yl)methy) sulfamide] | < 10 | < 10
